Results from patent US20200236933A1, “USE OF A NON-IONIC SURFACTANT WHICH IS A POLYOL DERIVATIVE AS A PLANT GROWTH STIMULATING AGENT OR AS AN ADJUVANT” (priority 2017, published 2020).

Tests used:
[1] = tested on: flat-leaf parsley variety NOVAS; assay: Root growth, assays in fields; type: in vivo, Petroselinum crispum var. neapolitanum; details: seeds immersed 1 h in 2.5% solution; 12 weeks after sowing
Description: In order to test the effect of the invention in conditions of crops in fields, the flat-leaf parsley variety NOVAS (Petroselinum crispum var. neapolitanum) is used.
(§1) The seeds are next dried in a heating tunnel at 45° C. for 1 h.
The seeds are mechanically sown (seeder) on strips of four rows each one beside the other to limit as much as possible the variations in soil quality, insulation and temperature. 12 weeks after sowing, 25 parsley plants were taken in order to measure several parameters of the roots: their weight, their length, and their diameter.

[2] = tested on: parsley leaves; assay: Calcium content of the leaves; type: in vivo; details: 3% solution, watering every three days and spraying twice daily, seven days
Text: After seven days of treatment, the leaves are harvested and analyzed to determine their calcium content.

[3] = tested on: maize seeds; assay: Root growth (rootlets) of maize seeds; type: in vivo; details: maize seeds immersed 1 h in 2.5% solution; after two days
Description: The seeds are next dried in a heating tunnel at 45° C. for one hour. Four batch repetitions of 16 seeds are deposited on Petri dishes containing a medium composed of 2% Agar Agar and 98% water.
The Petri dishes are kept at ambient temperature and in darkness.

[4] = tested on: flat-leaf parsley variety NOVAS; assay: Vertical anchoring of the root, assays in fields; type: in vivo; details: seeds immersed 1 h in 2.5% solution; 12 weeks after sowing
Description: In order to test the effect of the invention in conditions of crops in the field, the flat-leaf parsley variety NOVAS is used.
as §1
The seeds are mechanically sown (seeder) on strips of four rows each one beside the other to limit as much as possible the variations in soil quality, insulation and temperature.
12 weeks after sowing, 25 parsley plants were harvested in order to observe root morphology.

[5] = tested on: detached leaves of Buddleja davidii; assay: Stickiness of a solution on the leaf (washing off); details: 2.5% with 3% titanium dioxide; washed with 14 g water
Text: A solution is applied by spraying on detached leaves of Buddleja davidii disposed flat on a support.
The leaves were next left at ambient temperature until the sprayed solutions had completely evaporated.
14 grams of water are next sprayed onto the leaves held vertical to simulate rain. The titanium residues on the leaf are next observed.

[6] = tested on: Helminthosphaeria; assay: Reduction of phytosanitary products on maize; type: in vivo, maize (P7043, Pioneer); details: 25% of recommended dose (0.25 L/ha Amistar + 0.6 L/ha Cicero) plus 3 L/ha sucrose stearate; 12-14 leaf stage
Description: Assays in a climate-controlled chamber were carried out on maize ([…], Pioneer). The maize was sowed in containers of 1 meter by 1 meter. […] […]® comprises the active ingredient: azoxystrobin (belonging to the strobilurin family), and Cicero® comprises two active ingredients: chlorothalonil (belonging to the chloronitrile family), and flutriafol (belonging to the triazole family). […] The containers were then taken out of the climate-controlled chamber and disposed near a field having more than 50% of maize plants diseased with Helminthosphaeria. After 1 day, the containers were placed back in the climate-controlled chamber under controlled conditions.

sucrose stearate
diameter of the taproot, on average greater than the control [1]: 30%
roots with a length of more than 10 cm [1]: 74%
weight of the taproot, on average greater than the control [1]: 70%
reduction in the level of calcium in the leaves [2]: 17%
rootlets on the germinated seeds [3]: rootlet presence is observed
root morphology [4]: root elongation, coupled with vertical anchorage of the roots
titanium dioxide residue on the leaf after washing [5]: still clearly visible
plants presenting Helminthosphaeria spots [6]: less than 10%
